Measured values from US7795229B2, “Serum cholesterol lowering agent or preventative or therapeutic agent for atherosclerosis” (Kotobuki Pharmaceutical Co., Ltd., priority 2003, dated 2010).

| melting point [°C] | SMILES |
| --- | --- |
| 78 to 80 | O=C1[C@H](CCCc2ccc(F)cc2)[C@H](c2ccc(C[C@@H]3O[C@H](CO)[C@@H](O)[C@H](O)[C@H]3O)cc2)N1c1ccc(F)cc1 [Compound 40] |
| 81 to 83 | O=C1[C@H](CC[C@H](O)c2ccc(F)cc2)[C@@H](c2ccc(CCCC[C@@H]3O[C@H](CO)[C@@H](O)[C@H](O)[C@H]3O)cc2)N1c1ccc(F)cc1 [Compound 53] |
| 72 to 74 | O=C1[C@H](CC[C@H](O)c2ccc(F)cc2)[C@@H](c2ccc(/C=C/C[C@@H]3O[C@H](CO)[C@@H](O)[C@H](O)[C@H]3O)cc2)N1c1ccc(F)cc1 [Compound 47] |
| 153 to 155 | O=C1[C@H](CC[C@H](O)c2ccc(F)cc2)[C@@H](c2ccc(CC[C@@H]3O[C@H](CO)[C@@H](O)[C@H](O)[C@H]3O)cc2)N1c1ccc(F)cc1 [Compound 46] |
| 83 to 85 | O=C(CC[C@H]1C(=O)N(c2ccc(F)cc2)[C@@H]1c1ccc([C@@H]2O[C@H](CO)[C@@H](O)[C@H](O)[C@H]2O)cc1)c1ccc(F)cc1 [Compound 34] |
| 84 to 86 | O=C1[C@H](CC[C@H](O)c2ccc(F)cc2)[C@@H](c2ccc(/C=C/[C@@H]3O[C@H](CO)[C@@H](O)[C@H](O)[C@H]3O)cc2)N1c1ccc(F)cc1 [Compound 45] |
| 65 to 67 | O=C1[C@H](CC[C@H](O)c2ccc(F)cc2)[C@@H](c2ccc(/C=C/COC[C@@H]3O[C@H](CO)[C@@H](O)[C@H](O)[C@H]3O)cc2)N1c1ccc(F)cc1 [Compound 51] |
| 56 to 58 | CC(=O)OC[C@H]1O[C@@H](Cc2ccc([C@@H]3[C@@H](CCCc4ccc(F)cc4)C(=O)N3c3ccc(F)cc3)cc2)[C@H](OC(C)=O)[C@@H](OC(C)=O)[C@@H]1OC(C)=O [Compound 3] |
| 67 to 69 | O=C1[C@H](CCCc2ccc(F)cc2)[C@@H](c2ccc(C[C@@H]3O[C@H](CO)[C@@H](O)[C@H](O)[C@H]3O)cc2)N1c1ccc(F)cc1 [Compound 25] |
| 102 to 104 | O=C(O)c1ccc(N2C(=O)[C@H](CCC(=O)c3ccc(F)cc3)[C@H]2c2ccc(C[C@@H]3O[C@H](CO)[C@@H](O)[C@H](O)[C@H]3O)cc2)cc1 [Compound 30] |
| 104 to 106 | O=C(CC[C@H]1C(=O)N(c2ccccc2)[C@@H]1c1ccc(C[C@@H]2O[C@H](CO)[C@@H](O)[C@H](O)[C@H]2O)cc1)c1ccc(F)cc1 [Compound 27] |
| 73 to 75 | COc1ccc(N2C(=O)[C@H](CCCc3ccc(F)cc3)[C@H]2c2ccc(C[C@@H]3O[C@H](CO)[C@@H](O)[C@H](O)[C@H]3O)cc2)cc1 [Compound 5] |
| 84 to 86 | O=C1[C@H](CCCc2ccccc2)[C@@H](c2ccc(C[C@@H]3O[C@H](CO)[C@@H](O)[C@H](O)[C@H]3O)cc2)N1c1ccccc1 [Compound 44] |
| 76 to 78 | O=C1[C@H](CCCc2ccc(F)cc2)[C@@H](c2ccc(C[C@@H]3O[C@H](CO)[C@@H](O)[C@H](O)[C@H]3O)cc2)N1c1ccc(Cl)cc1 [Compound 4] |
| 148 to 150 | O=C(O)c1ccc(N2C(=O)[C@H](CC[C@H](O)c3ccc(F)cc3)[C@H]2c2ccc(C[C@@H]3O[C@H](CO)[C@@H](O)[C@H](O)[C@H]3O)cc2)cc1 [Compound 29] |
| 126 to 128 | O=C1[C@H](CC[C@H](O)c2ccc(C[C@@H]3O[C@H](CO)[C@@H](O)[C@H](O)[C@H]3O)cc2)[C@@H](c2ccc(F)cc2)N1c1ccc(F)cc1 [Compound 39] |
| 161 to 162 | Cc1ccc(CCC[C@H]2C(=O)N(c3ccc(OC(C)(C)C(=O)O)cc3)[C@@H]2c2ccc(C[C@@H]3O[C@H](CO)[C@@H](O)[C@H](O)[C@H]3O)cc2)cc1 [Compound 21] |

| melting point [°C] | SMILES |
| --- | --- |
| 170 to 172 | CC(C)(Oc1ccc(N2C(=O)[C@H](CCCc3ccc(F)cc3)[C@H]2c2ccc(C[C@@H]3O[C@H](CO)[C@@H](O)[C@H](O)[C@H]3O)cc2)cc1)C(=O)O [Compound 19] |
| 66 to 68 | O=C1[C@H](CC[C@H](O)c2ccc(F)cc2)[C@@H](c2ccc(CCCCC[C@@H]3O[C@H](CO)[C@@H](O)[C@H](O)[C@H]3O)cc2)N1c1ccc(F)cc1 [Compound 55] |
| 84 to 86 | O=C1[C@H](CCCc2ccc(F)cc2)[C@@H](c2ccc(C[C@@H]3O[C@H](CO)[C@@H](O)[C@H](O)[C@H]3O)cc2)N1c1ccccc1 [Compound 9] |
| 96 to 98 | Cc1ccc(N2C(=O)[C@H](CCOc3ccc(F)cc3)[C@H]2c2ccc(C[C@@H]3O[C@H](CO)[C@@H](O)[C@H](O)[C@H]3O)cc2)cc1 [Compound 43] |
| 78 to 80 | O=C(CC[C@H]1C(=O)N(c2ccc(F)cc2)[C@@H]1c1ccc(C[C@@H]2O[C@H](CO)[C@@H](O)[C@H](O)[C@H]2O)cc1)c1ccc(F)cc1 [Compound 26] |
| 115 to 117 | O=C1[C@H](CC[C@H](O)c2ccc(F)cc2)[C@@H](c2ccc(C[C@@H]3O[C@H](CO)[C@@H](O)[C@H](O)[C@H]3O)cc2)N1c1ccc(F)cc1 [Compound 22] |
| 104 to 106 | O=C1[C@H](CC[C@H](O)c2ccc(F)cc2)[C@@H](c2ccc(C[C@@H]3O[C@H](CO)[C@@H](O)[C@H](O)[C@H]3O)cc2)N1c1ccccc1 [Compound 23] |
| 56 to 58 | CCOC(=O)c1ccc(N2C(=O)[C@H](CC[C@H](O)c3ccc(F)cc3)[C@H]2c2ccc(C[C@@H]3O[C@H](CO)[C@@H](O)[C@H](O)[C@H]3O)cc2)cc1 [Compound 42] |
| 110 to 112 | O=C1[C@H](CC[C@H](O)c2ccccc2)[C@@H](c2ccc(C[C@@H]3O[C@H](CO)[C@@H](O)[C@H](O)[C@H]3O)cc2)N1c1ccccc1 [Compound 41] |
| 97 to 99 | O=C(O)c1ccc(N2C(=O)[C@H](CCCc3ccc(F)cc3)[C@H]2c2ccc(C[C@@H]3O[C@H](CO)[C@@H](O)[C@H](O)[C@H]3O)cc2)cc1 [Compound 31] |
| 56 to 58 | CC(=O)OC[C@H]1O[C@@H](Cc2ccc([C@@H]3[C@@H](CCCc4ccc(F)cc4)C(=O)N3c3ccc(C)cc3)cc2)[C@H](OC(C)=O)[C@@H](OC(C)=O)[C@@H]1OC(C)=O [Compound 8] |
| 73 to 75 | O=C1[C@H](CCCc2ccc(F)cc2)[C@@H](c2ccc(OC[C@@H]3O[C@H](CO)[C@@H](O)[C@H](O)[C@H]3O)cc2)N1Cc1ccccc1 [Compound 16] |
| 111 to 113 | O=C1[C@H](CC[C@H](O)c2ccc([C@H]3O[C@@H](CO)[C@H](O)[C@@H](O)[C@@H]3O)cc2)C(c2ccc(F)cc2)N1c1ccc(F)cc1 (stereo partly shown) [Compound 49] |
| 79 to 81 | O=C1[C@H](CC[C@H](O)c2ccc(F)cc2)[C@@H](c2ccc(/C=C/CC[C@@H]3O[C@H](CO)[C@@H](O)[C@H](O)[C@H]3O)cc2)N1c1ccc(F)cc1 [Compound 52] |
| 110 to 112 | O=C1[C@H](CCCc2ccc(F)cc2)[C@@H](c2ccc(C[C@@H]3O[C@H](CO)[C@@H](O)[C@H](O)[C@H]3O)cc2)N1c1ccc(F)cc1 [Compound 2] |
| 116 to 118 | Cc1ccc(N2C(=O)[C@H](CC[C@H](O)c3ccc(F)cc3)[C@H]2c2ccc(CC[C@@H]3O[C@H](CO)[C@@H](O)[C@H](O)[C@H]3O)cc2)cc1 [Compound 57] |
| 105 to 106 | O=C(O)[C@H]1O[C@@H](Cc2ccc([C@@H]3[C@@H](CCCc4ccc(F)cc4)C(=O)N3c3ccc(F)cc3)cc2)[C@H](O)[C@@H](O)[C@@H]1O [Compound 17] |
